# Laboratory results: patent US4068070A, “α-Cyanoamine compounds and a process for producing the same” (Fuji Chemical Industry Co., Ltd., priority 1974, dated 1978)
# Assays:
# Assay type in all cases: in vivo, mongrel adult dogs
# [1] = system: aortic blood flow; test: Effects on aortic blood flow
# Method in brief: (§1)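 Readouts: aortic pressure by transducer through carotid cannula, aortic root flow electromagnetically, coronary sinus flow and oxygen tension through Morawitz cannulation. Subjects were anesthetized (pentobarbital) open-chest adult mongrel dogs of either sex given intravenous test compound or active placebo.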
# [2] = system: heart rate; test: Effects on heart rate
# Method in brief: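 Adult mongrel dogs of both sexes were anesthetized with pentobarbital and thoracotomized. Test agents, suspended or dissolved in 0.2% CMC, pH 6 HCl solution or saline, were injected intravenously into the brachial vein. Hemodynamic and coronary sinus parameters were then recorded.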
# [3] = system: coronary sinus out flow; test: Effects on coronary sinus out flow
# Method in brief: as §1
# [4] = system: arterial mean blood pressure; test: Effects on arterial mean blood pressure
# Method in brief: as §1
# [5] = system: coronary sinus oxygen tension; test: Effects on coronary sinus oxygen tension
# Method in brief: as §1
smiles,measurement,setting,value
COc1ccc(C(C#N)N2CCCN(CC=Cc3ccccc3)CC2)cc1OC (centres unmarked) [Compound E],"Changes (%) of basal values, aortic blood flow","[1]; 2.0 mg/kg i.v., 1 min",+3.6%
same,"Changes (%) of basal values, aortic blood flow","[1]; 2.0 mg/kg i.v., 5 min",+0.8%
same,"Changes (%) of basal values, aortic blood flow","[1]; 2.0 mg/kg i.v., 10 min",0%
same,"Changes (%) of basal values, aortic blood flow","[1]; 2.0 mg/kg i.v., 20 min",0%
same,"Changes (%) of basal values, aortic blood flow","[1]; 2.0 mg/kg i.v., 30 min",0%
same,"Changes (%) of basal values, aortic blood flow","[1]; 2.0 mg/kg i.v., 40 min",0%
same,"Changes (%) of basal values, aortic blood flow","[1]; 2.0 mg/kg i.v., imm.",+9.9%
same,"Changes (%) of basal values, aortic blood flow","[1]; 6.0 mg/kg i.v., 1 min",+5.8%
same,"Changes (%) of basal values, aortic blood flow","[1]; 6.0 mg/kg i.v., 5 min",0%
same,"Changes (%) of basal values, aortic blood flow","[1]; 6.0 mg/kg i.v., 10 min",-3.7%
same,"Changes (%) of basal values, aortic blood flow","[1]; 6.0 mg/kg i.v., 20 min",-2.8%
same,"Changes (%) of basal values, aortic blood flow","[1]; 6.0 mg/kg i.v., 30 min",-1.5%
same,"Changes (%) of basal values, aortic blood flow","[1]; 6.0 mg/kg i.v., 40 min",-0.3%
same,"Changes (%) of basal values, aortic blood flow","[1]; 6.0 mg/kg i.v., imm.",+11.7%
same,"Changes (%) of basal values, aortic blood flow","[1]; 20.0 mg/kg i.v., 1 min",+7.6%
same,"Changes (%) of basal values, aortic blood flow","[1]; 20.0 mg/kg i.v., 5 min",-4.8%
same,"Changes (%) of basal values, aortic blood flow","[1]; 20.0 mg/kg i.v., 10 min",-12.4%
same,"Changes (%) of basal values, aortic blood flow","[1]; 20.0 mg/kg i.v., 20 min",-10.5%
same,"Changes (%) of basal values, aortic blood flow","[1]; 20.0 mg/kg i.v., 30 min",-9.5%
same,"Changes (%) of basal values, aortic blood flow","[1]; 20.0 mg/kg i.v., 40 min",-7.6%
same,"Changes (%) of basal values, aortic blood flow","[1]; 20.0 mg/kg i.v., imm.",+16.3%
same,Effects on aortic blood flow (in words),"[1]; i.v., anesthetized dogs","an increase in blood flow immediately after administration, followed by a decrease in blood flow"
same,"Changes(%) of basal values, heart rate","[2]; 2.0 mg/kg i.v., 1 min",-0.2%
same,"Changes(%) of basal values, heart rate","[2]; 2.0 mg/kg i.v., 5 min",-0.6%
same,"Changes(%) of basal values, heart rate","[2]; 2.0 mg/kg i.v., 10 min",-1.3%
same,"Changes(%) of basal values, heart rate","[2]; 2.0 mg/kg i.v., 20 min",0%
same,"Changes(%) of basal values, heart rate","[2]; 2.0 mg/kg i.v., 30 min",0%
same,"Changes(%) of basal values, heart rate","[2]; 2.0 mg/kg i.v., 40 min",0%
same,"Changes(%) of basal values, heart rate","[2]; 2.0 mg/kg i.v., imm.",-2.9%
same,"Changes(%) of basal values, heart rate","[2]; 6.0 mg/kg i.v., 1 min",-0.9%
same,"Changes(%) of basal values, heart rate","[2]; 6.0 mg/kg i.v., 5 min",-3.7%
same,"Changes(%) of basal values, heart rate","[2]; 6.0 mg/kg i.v., 10 min",-1.4%
same,"Changes(%) of basal values, heart rate","[2]; 6.0 mg/kg i.v., 20 min",-1.3%
same,"Changes(%) of basal values, heart rate","[2]; 6.0 mg/kg i.v., 30 min",-0.8%
same,"Changes(%) of basal values, heart rate","[2]; 6.0 mg/kg i.v., 40 min",-0.6%
same,"Changes(%) of basal values, heart rate","[2]; 6.0 mg/kg i.v., imm.",-9.1%
same,"Changes(%) of basal values, heart rate","[2]; 20.0 mg/kg i.v., 1 min",-1.0%
same,"Changes(%) of basal values, heart rate","[2]; 20.0 mg/kg i.v., 5 min",-7.8%
same,"Changes(%) of basal values, heart rate","[2]; 20.0 mg/kg i.v., 10 min",-9.1%
same,"Changes(%) of basal values, heart rate","[2]; 20.0 mg/kg i.v., 20 min",-7.9%
same,"Changes(%) of basal values, heart rate","[2]; 20.0 mg/kg i.v., 30 min",-7.1%
same,"Changes(%) of basal values, heart rate","[2]; 20.0 mg/kg i.v., 40 min",-6.6%
same,"Changes(%) of basal values, heart rate","[2]; 20.0 mg/kg i.v., imm.",-16.8%
same,Effects on heart rate (in words),"[2]; i.v., anesthetized dogs",a slight negative chronotropic effect
same,"Changes(%) of basal values, coronary sinus out flow","[3]; 2.0 mg/kg i.v., 1 min",+2.5%
same,"Changes(%) of basal values, coronary sinus out flow","[3]; 2.0 mg/kg i.v., 5 min",-0.8%
same,"Changes(%) of basal values, coronary sinus out flow","[3]; 2.0 mg/kg i.v., 10 min",-1.0%
same,"Changes(%) of basal values, coronary sinus out flow","[3]; 2.0 mg/kg i.v., 20 min",-0.3%
same,"Changes(%) of basal values, coronary sinus out flow","[3]; 2.0 mg/kg i.v., 30 min",0%
same,"Changes(%) of basal values, coronary sinus out flow","[3]; 2.0 mg/kg i.v., 40 min",0%
same,"Changes(%) of basal values, coronary sinus out flow","[3]; 2.0 mg/kg i.v., imm.",+7.8%
same,"Changes(%) of basal values, coronary sinus out flow","[3]; 6.0 mg/kg i.v., 1 min",+24.3%
same,"Changes(%) of basal values, coronary sinus out flow","[3]; 6.0 mg/kg i.v., 5 min",+4.2%
same,"Changes(%) of basal values, coronary sinus out flow","[3]; 6.0 mg/kg i.v., 10 min",+3.3%
same,"Changes(%) of basal values, coronary sinus out flow","[3]; 6.0 mg/kg i.v., 20 min",+2.3%
same,"Changes(%) of basal values, coronary sinus out flow","[3]; 6.0 mg/kg i.v., 30 min",+1.5%
same,"Changes(%) of basal values, coronary sinus out flow","[3]; 6.0 mg/kg i.v., 40 min",+1.1%
same,"Changes(%) of basal values, coronary sinus out flow","[3]; 6.0 mg/kg i.v., imm.",+51.3%
same,"Changes(%) of basal values, coronary sinus out flow","[3]; 20.0 mg/kg i.v., 1 min",+64.3%
same,"Changes(%) of basal values, coronary sinus out flow","[3]; 20.0 mg/kg i.v., 5 min",+14.7%
same,"Changes(%) of basal values, coronary sinus out flow","[3]; 20.0 mg/kg i.v., 10 min",+15.8%
same,"Changes(%) of basal values, coronary sinus out flow","[3]; 20.0 mg/kg i.v., 20 min",+15.4%
same,"Changes(%) of basal values, coronary sinus out flow","[3]; 20.0 mg/kg i.v., 30 min",+12.1%
same,"Changes(%) of basal values, coronary sinus out flow","[3]; 20.0 mg/kg i.v., 40 min",+9.8%
same,"Changes(%) of basal values, coronary sinus out flow","[3]; 20.0 mg/kg i.v., imm.",+90.3%
same,Effects on coronary sinus out flow (in words),"[3]; i.v., anesthetized dogs","a marked increasing effect on coronary sinus out flow, which was proportioned to doses thereof and of long duration"
same,"Changes (%) of basal values, arterial mean blood pressure","[4]; 2.0 mg/kg i.v., 1 min",-1.5%
same,"Changes (%) of basal values, arterial mean blood pressure","[4]; 2.0 mg/kg i.v., 5 min",-3.3%
same,"Changes (%) of basal values, arterial mean blood pressure","[4]; 2.0 mg/kg i.v., 10 min",-2.1%
same,"Changes (%) of basal values, arterial mean blood pressure","[4]; 2.0 mg/kg i.v., 20 min",-1.0%
same,"Changes (%) of basal values, arterial mean blood pressure","[4]; 2.0 mg/kg i.v., 30 min",-0.3%
same,"Changes (%) of basal values, arterial mean blood pressure","[4]; 2.0 mg/kg i.v., 40 min",0%
same,"Changes (%) of basal values, arterial mean blood pressure","[4]; 2.0 mg/kg i.v., imm.",-7.4%
same,"Changes (%) of basal values, arterial mean blood pressure","[4]; 6.0 mg/kg i.v., 1 min",-3.8%
same,"Changes (%) of basal values, arterial mean blood pressure","[4]; 6.0 mg/kg i.v., 5 min",-6.0%
same,"Changes (%) of basal values, arterial mean blood pressure","[4]; 6.0 mg/kg i.v., 10 min",-10.9%
same,"Changes (%) of basal values, arterial mean blood pressure","[4]; 6.0 mg/kg i.v., 20 min",-8.2%
same,"Changes (%) of basal values, arterial mean blood pressure","[4]; 6.0 mg/kg i.v., 30 min",-3.8%
same,"Changes (%) of basal values, arterial mean blood pressure","[4]; 6.0 mg/kg i.v., 40 min",-2.8%
same,"Changes (%) of basal values, arterial mean blood pressure","[4]; 6.0 mg/kg i.v., imm.",-22.6%
same,"Changes (%) of basal values, arterial mean blood pressure","[4]; 20.0 mg/kg i.v., 1 min",-8.3%
same,"Changes (%) of basal values, arterial mean blood pressure","[4]; 20.0 mg/kg i.v., 5 min",-15.9%
same,"Changes (%) of basal values, arterial mean blood pressure","[4]; 20.0 mg/kg i.v., 10 min",-21.2%
same,"Changes (%) of basal values, arterial mean blood pressure","[4]; 20.0 mg/kg i.v., 20 min",-19.9%
same,"Changes (%) of basal values, arterial mean blood pressure","[4]; 20.0 mg/kg i.v., 30 min",-16.2%
same,"Changes (%) of basal values, arterial mean blood pressure","[4]; 20.0 mg/kg i.v., 40 min",-11.4%
same,"Changes (%) of basal values, arterial mean blood pressure","[4]; 20.0 mg/kg i.v., imm.",-29.9%
same,Effects on arterial mean blood pressure (in words),"[4]; i.v., anesthetized dogs",hypotensive effects being proportioned to their doses which were of long duration
same,"Changes(%) of basal values, coronary sinus oxygen tension","[5]; 2.0 mg/kg i.v., 1 min",+4.1%
same,"Changes(%) of basal values, coronary sinus oxygen tension","[5]; 2.0 mg/kg i.v., 5 min",+1.1%
same,"Changes(%) of basal values, coronary sinus oxygen tension","[5]; 2.0 mg/kg i.v., 10 min",+0.5%
same,"Changes(%) of basal values, coronary sinus oxygen tension","[5]; 2.0 mg/kg i.v., 20 min",0%
same,"Changes(%) of basal values, coronary sinus oxygen tension","[5]; 2.0 mg/kg i.v., 30 min",0%
same,"Changes(%) of basal values, coronary sinus oxygen tension","[5]; 2.0 mg/kg i.v., 40 min",0%
same,"Changes(%) of basal values, coronary sinus oxygen tension","[5]; 2.0 mg/kg i.v., imm.",+8.3%
same,"Changes(%) of basal values, coronary sinus oxygen tension","[5]; 6.0 mg/kg i.v., 1 min",+27.0%
same,"Changes(%) of basal values, coronary sinus oxygen tension","[5]; 6.0 mg/kg i.v., 5 min",+8.0%
same,"Changes(%) of basal values, coronary sinus oxygen tension","[5]; 6.0 mg/kg i.v., 10 min",+8.5%
same,"Changes(%) of basal values, coronary sinus oxygen tension","[5]; 6.0 mg/kg i.v., 20 min",+4.2%
same,"Changes(%) of basal values, coronary sinus oxygen tension","[5]; 6.0 mg/kg i.v., 30 min",+2.5%
same,"Changes(%) of basal values, coronary sinus oxygen tension","[5]; 6.0 mg/kg i.v., 40 min",+0.8%
same,"Changes(%) of basal values, coronary sinus oxygen tension","[5]; 6.0 mg/kg i.v., imm.",+29.7%
same,"Changes(%) of basal values, coronary sinus oxygen tension","[5]; 20.0 mg/kg i.v., 1 min",+39.2%
same,"Changes(%) of basal values, coronary sinus oxygen tension","[5]; 20.0 mg/kg i.v., 5 min",+20.4%
same,"Changes(%) of basal values, coronary sinus oxygen tension","[5]; 20.0 mg/kg i.v., 10 min",+16.6%
same,"Changes(%) of basal values, coronary sinus oxygen tension","[5]; 20.0 mg/kg i.v., 20 min",+20.8%
same,"Changes(%) of basal values, coronary sinus oxygen tension","[5]; 20.0 mg/kg i.v., 30 min",+20.2%
same,"Changes(%) of basal values, coronary sinus oxygen tension","[5]; 20.0 mg/kg i.v., 40 min",+19.8%
same,"Changes(%) of basal values, coronary sinus oxygen tension","[5]; 20.0 mg/kg i.v., imm.",+46.2%
same,Effects on coronary sinus oxygen tension (in words),"[5]; i.v., anesthetized dogs","a significant increase in coronary sinus oxygen tension, effect of which was of long duration"
